Reference: patent US20100190755A1, “TETRACYCLINE COMPOUNDS FOR THE TREATMENT OF RHEUMATOID ARTHRITIS AND RELATED METHODS OF TREATMENT” (priority 2008, published 2010)
≈ marks a conversion by molar mass, not a printed value.

Assays:
[1] = test system: E. coli 25922; test: Antibacterial activity MIC, Gram- (Table 9); assay type: cell-based; details: Escherichia coli, CAMHB, 35° C., approximately 18 hr
Protocol: (§1) 2 mg of each compound is dissolved in 100 μl of DMSO. The solution is then added to cation-adjusted Mueller Hinton broth (CAMHB), which results in a final compound concentration of 200 μg per ml. The tetracycline compound solutions are diluted to 50 μL volumes, with a test compound concentration of 0.098 μg/ml. Optical density (OD) determinations are made from fresh log-phase broth cultures of the test strains. Dilutions are made to achieve a final cell density of 1×10^6 CFU/ml. At OD=1, cell densities for different genera should be approximately:
(§2) 50 μl of the cell suspensions are added to each well of microtiter plates. The final cell density should be approximately 5×10^5 CFU/ml. These plates are incubated at 35° C. in an ambient air incubator for approximately 18 hr. The plates are read with a microplate reader and are visually inspected when necessary. The MIC is defined as the lowest concentration of the tetracycline compound that inhibits growth.

[2] = test system: cytokines (IL-1, IL-6, RANKL and MCP-1) and a matrix metalloproteinase (MMP-9); test: Paw extract biomarker ELISA, CIA mice: whole panel (statements in words); assay type: in vivo, mouse
Protocol: (§3) • 1. Male DBA/1 mice were immunized i.d. with an emulsion of 200 μg bovine type II collagen in Complete Freund's Adjuvant. • 2. On day 21, mice received i.d. boost of 100 μg collagen in Incomplete Freund's Adjuvant • 3. Compounds were administered i.p. daily for 7 days starting from disease onset (day 3-4 after boost). • 4. Foot swelling was measured by an engineering micrometer and disease severity was scored accordingly (1, erythema and mild swelling confined to the tarsal or ankle joint; 2, erythema and mild swelling extending from the ankle to the mid-foot; 3, erythema and moderate swelling extending from the ankle to the metatarsal joints; 4, erythema and severe swelling encompassing the ankle, foot, and digits). • 5. Change (Δ) of paw thickness=sum of paw thickness from 4 paws of a mouse (experimental)−sum of baseline paw thickness from 4 paws of the same mouse. • 6. % inhibition=cumulative A paw thickness (disease group−compound-treated group)/cumulative A paw thickness (disease group)
(§4) • 1. Paws were collected from mice after 5-7 days of dosing and dissected free of skin. • 2. The paws were then homogenized in ice-cold PBS (2 ml/4 paws/mouse) containing 1× protease inhibitor using a Polytron homogenizer. • 3. Debris and particles were removed from the homogenized samples by centrifugation. • 4. Liquid layers were collected for MMP-9, IL-1, IL-6, RANKL, MCP-1, and TNFα analysis using ELISA kits from R & D System.

[3] = test system: collagen-induced arthritis (CIA) in male DBA/1 mice; test: CIA model, Example 3 (cumulative scores vs untreated controls); assay type: in vivo; details: Mus musculus
Protocol: The CIA model data were acquired according to the following protocol: • 1. Male DBA/1 mice were anaesthetized by i.p. injection of ketamine/xylazine (1.25 mg/ml:0.25 mg/ml, 100 μl/mouse). • 2. Anaesthetized mice were immunized intradermally at the base of the tail with 0.1 or 0.2 ml of an emulsion composed of 100 or 200 μg bovine type II collagen in Complete Freund's Adjuvant (50 μl/spot x 2 or 4 spots). • 3. At day 21 after the immunization, mice received an intradermal boost of 100 μl of an emulsion composed of 100 μg bovine type II collagen in Incomplete Freund's Adjuvant (50 μl/spot x 2 spots) • 4. After onset of disease symptoms (usually 3-4 days after boost), tetracycline derivatives were administered daily into mice via intraperitoneal or oral routes for 8 to 15 days. Methotrexate (12 mg/kg/day) or dexmethasone (4 mg/kg/day) was used as a control for inflammation suppression. • 5. The disease severity was scored daily for 8-15 days after the appearance of the symptoms. Disease severity was graded as following: • a. Visual clinical score for the presence of inflammation in the fingers/toes of the forepaws and hindpaws: • 1. Erythema and mild swelling confined to the mid-foot (tarsals) or ankle joint • 2. Erythema and mild swelling extending from the ankle to the mid-foot • 3. Erythema and moderate swelling extending from the ankle to the metatarsal joints • 4. Erythema and severe swelling encompassing the ankle, foot, and digits. • b. Clinical swelling score for the presence of paw edema in the forepaws and hindpaws: • Paw thickness was measured daily by an engineering micrometer after isofluorane inhalation or ketamine/xylazine (1.25 mg/ml:0.25 mg/ml, 100 μl/mouse) i.p. injection.
Daily scores and paw swelling measurements for each treatment group of mice were added over the total observation period to obtain a cumulative score. Cumulative scores were compared between untreated controls and treated groups to determine tetracycline-induced inhibition.

[4] = test system: Protein synthesis (E. coli S30 Extract System); test: Protein synthesis inhibition, in vitro transcription/translation assay (E. coli S30 Extract System for Circular DNA); assay type: biochemical
[5] = test system: E. coli ATCC25922 (tetracycline sensitive); test: E. coli MIC, broth micro-dilution per CLSI guidelines (Table 3); assay type: cell-based; details: for MIC: Escherichia coli, E. coli ATCC25922, cation-adjusted Mueller Hinton broth
[6] = test system: collagen-induced arthritis (CIA) in male DBA/1 mice; test: Murine collagen-induced arthritis (CIA) model, Example 2; assay type: in vivo, mouse; details: for % Inhibition (Change in Paw Thickness) AVG / % Inhibition (Clinical Score) AVG / Change in Paw Thickness (mm) Mean: 25 mg/kg/day i.p.; for % Inhibition (Change in Paw Thickness) AVG / % Inhibition (Clinical Score) AVG: dosed after disease onset; for EC50 in inflammation suppression in CIA mice: i.p. daily; for Effects on reduction of paw swelling and clinical score compared to either minocycline or methotrexate / joint inflammation when administered after disease onset: murine CIA model
Protocol: Four non-antibacterial analogues of minocycline (J, W, AF and AT) were synthesized and tested in the murine model of the disease, collagen-induced arthritis (CIA) (See supra). Male DBA/1 mice were immunized intradermally with 200 μg of bovine type II collagen and boosted with collagen three weeks later. Minocycline and four non-antibacterial minocycline derivatives were administered i.p. beginning after disease onset. Paw thickness was measured and animals were scored daily.
as §3

[7] = test system: S. aureus RN450; test: Antibacterial activity MIC, Gram+ (Table 9); assay type: cell-based; details: Staphylococcus aureus, CAMHB, 35° C., approximately 18 hr
Protocol: as §1, §2

[8] = Pharmacokinetics in rats after i.v. and oral dosing; assay type: in vivo; details: rat; for bioavailability: male, CD/IGS, after oral dosing of 5 mg/kg, read-out: PK Parameters (Rat) % F, fraction of absorption; for bioavailability / half-life: plasma; for half-life: male CD/IGS rats, 1 mg/kg i.v. or 5 mg/kg oral, read-out: PK Parameters (Rat) T1/2 (converted)
Protocol: Pre-cannulated (jugular vein and carotid artery for i.v. group and carotid artery for oral group) male CD/IGS rats (approximately 250 g) were used. Rats were fasted overnight prior to dosing with access to food restored 2 hours after dosing. Rats were administered with approximately 0.25 mL compound (1 mg/kg dose) for i.v. route (via jugular vein over 20 seconds) or 0.5 mL solution (5 mg/kg dose) orally. Blood (300 μL) was collected in tubes with EDTA anticoagulant at various time points, centrifuged and plasma collected and stored frozen at −20° C. Animals were euthanized by CO2 following the final blood collection. Plasma was extracted (0.1% trifluoroacetic acid in 67% acetonitrile/33% water) and levels of compound quantified by HPLC/MS against a standard curve.

[9] = test system: MMP-9; test: Paw extract biomarker ELISA, CIA mice: MMP-9; assay type: in vivo, mouse; details: paw extracts from CIA mice
Protocol: as §3, §4

[10] = test system: RANKL; test: Paw extract biomarker ELISA, CIA mice: RANKL; assay type: in vivo, mouse; details: paw extracts from CIA mice
Protocol: as §3, §4

[11] = test system: MCP-1; test: Paw extract biomarker ELISA, CIA mice: MCP-1; assay type: in vivo, mouse; details: paw extracts from CIA mice
Protocol: as §3, §4

[12] = test system: IL-1; test: Paw extract biomarker ELISA, CIA mice: IL-1; assay type: in vivo, mouse; details: paw extracts from CIA mice
Protocol: as §3, §4

[13] = test system: IL-6; test: Paw extract biomarker ELISA, CIA mice: IL-6; assay type: in vivo, mouse; details: paw extracts from CIA mice
Protocol: as §3, §4

Row | Compound | MIC [1] | inhibition of inflammatory/osteoclastic cytokines (MMP-9, IL-1, IL-6, MCP-1, RANKL) in vivo [2] | inhibition in vivo at 6 mg/kg [3] | inhibition in vivo at 12 mg/kg [3] | inhibition in vivo at 25 mg/kg [3] | MIC [5] | % Inhibition (Change in Paw Thickness) AVG [6] | % Inhibition (Clinical Score) AVG [6] | EC50 in inflammation suppression in CIA mice [6] | Change in Paw Thickness (mm) Mean ([6]; day 1 of dosing) | Change in Paw Thickness (mm) Mean ([6]; day 2 of dosing) | Change in Paw Thickness (mm) Mean ([6]; day 3 of dosing) | Change in Paw Thickness (mm) Mean ([6]; day 4 of dosing) | Change in Paw Thickness (mm) Mean ([6]; day 5 of dosing) | Change in Paw Thickness (mm) Mean ([6]; day 6 of dosing) | Change in Paw Thickness (mm) Mean ([6]; day 7 of dosing) | Change in Paw Thickness (mm) Mean ([6]; day 8 of dosing) | MIC [7] | bioavailability [8] | half-life [8] | other results
1 | CN(C)c1cc(-c2cccn2C)c(O)c2c1C[C@H]1C[C@H]3CC(O)=C(C(N)=O)C(=O)[C@@]3(O)C(O)=C1C2=O [Compound AT] | > 64 µg/mL | better than minocycline | 45% | 49% | 81% | > 64 µg/mL | 81% | 70% | 12 mg/kg/day i.p. | 0.94 mm | 0.57 mm | 0.55 mm | 0.11 mm | 0.05 mm | 0.27 mm | −0.01 mm | −0.08 mm | 1 µg/mL (≈ 2.03 µM) | 42% | 6.4 h | IC50 [4]: > 100 µM; anti-bacterial activity compared to minocycline [5]: no anti-bacterial activity; Effects on reduction of paw swelling and clinical score compared to either minocycline or methotrexate [6]: greater; joint inflammation when administered after disease onset [6]: inhibited joint inflammation; bio-available after oral dosing in rats [8]: bio-available
2 | COC(=O)c1cc(N(C)C)c2c(c1O)C(=O)C1=C(O)[C@]3(O)C(=O)C(C(N)=O)=C(O)C[C@@H]3C[C@@H]1C2 [Compound W] | > 64 µg/mL | better than minocycline | 25% | 32% | 60% | > 64 µg/mL | 60% | 40% | 20 mg/kg/day i.p. | 0.71 mm | 0.41 mm | 0.46 mm | 0.56 mm | 0.51 mm | 0.45 mm | 0.35 mm | 0.60 mm | 4 µg/mL (≈ 8.47 µM) | 52% | 3 h | Percent level of Biomarker Tissue [c] Compared to Untreated Control, MMP-9 AVG [9]: 72%; Percent level of Biomarker Tissue [c] Compared to Untreated Control, RANKL AVG [10]: 27%; Percent level of Biomarker Tissue [c] Compared to Untreated Control, MCP-1 AVG [11]: 28%; IC50 [4]: > 100 µM; anti-bacterial activity compared to minocycline [5]: no anti-bacterial activity; Percent level of Biomarker Tissue [c] Compared to Untreated Control, IL-1 AVG [12]: 32%; Effects on reduction of paw swelling and clinical score compared to either minocycline or methotrexate [6]: greater; joint inflammation when administered after disease onset [6]: inhibited joint inflammation; Percent level of Biomarker Tissue [c] Compared to Untreated Control, IL-6 AVG [13]: 28%; bio-available after oral dosing in rats [8]: bio-available
3 | CN(C)c1ccc(O)c2c1C[C@H]1C[C@H]3[C@H](N(C)C)C(O)=C(C(N)=O)C(=O)[C@@]3(O)C(O)=C1C2=O [Minocycline, minocycline, reference compound] | 1 µg/mL (≈ 2.19 µM) | – | – | – | 22% | 1 µg/mL (≈ 2.19 µM) | 22% | 18% | >50 mg/kg/day i.p. | 0.74 mm | 0.72 mm | 0.78 mm | 0.86 mm | 0.93 mm | 1.07 mm | 0.92 mm | 1.18 mm | 0.06 µg/mL (≈ 0.131 µM) | 31% | 3.6 h | Percent level of Biomarker Tissue [c] Compared to Untreated Control, MMP-9 AVG [9]: 104%; Percent level of Biomarker Tissue [c] Compared to Untreated Control, RANKL AVG [10]: 99%; Percent level of Biomarker Tissue [c] Compared to Untreated Control, MCP-1 AVG [11]: 102%; Percent level of Biomarker Tissue [c] Compared to Untreated Control, IL-1 AVG [12]: 119%; inhibition of the disease (CIA) ([6]; 50 mg/kg/day i.p.): 45%; Percent level of Biomarker Tissue [c] Compared to Untreated Control, IL-6 AVG [13]: 114%
